Test results from patent US20250059188A1, “ARYLSULPHONAMIDE COMPOUNDS” (Anaxis Pharma Pty Ltd, priority 2021, published 2025).

Tests used:
human RIPK1 = human RIPK1 (Homo sapiens (Human), UniProt Q13546); experiment: KINOMEscan binding assay, human RIPK1; conditions: equilibrium dissociation constant
Summary of the method: (§1)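 Binding constants were derived by fitting qPCR-quantified bead-retained kinase against compound concentration to the Hill equation, slope set at −1. Compound series were 3-fold over 11 points with 1% DMSO; most top concentrations were 30,000 nM. Kinases were T7-phage-tagged or HEK-293-produced with DNA tags.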

human RIPK3 = human RIPK3 (Homo sapiens (Human), UniProt Q9Y572); experiment: KINOMEscan binding assay, human RIPK3; conditions: equilibrium dissociation constant
Summary of the method: as §1

mouse MLKL (full length) = mouse MLKL (full length) (Mus musculus (Mouse), UniProt Q9D2Y4); experiment: KINOMEscan binding assay, mouse MLKL (full length); conditions: equilibrium dissociation constant
Method: Binding affinity of the test compounds for human MLKL (full length), mouse MLKL (full length), human RIPK1 and human RIPK3 was determined using the KINOMEscan™ technology developed by DiscoverX (USA; http://www.discoverx.com). The assay was conducted according to manufacturer instructions.
Kinase assays. For most assays, kinase-tagged T7 phage strains were grown in parallel in 24-well blocks in an E. coli host derived from the BL21 strain. E. coli were grown to log-phase and infected with T7 phage from a frozen stock (multiplicity of infection=0.4) and incubated with shaking at 32° C. until lysis (90-150 minutes). The lysates were centrifuged (6,000×g) and filtered (0.2 μm) to remove cell debris. The remaining kinases were produced in HEK-293 cells and subsequently tagged with DNA for qPCR detection. […] The liganded beads were blocked with excess biotin and washed with blocking buffer (SeaBlock (Pierce), 1% BSA, 0.05% Tween 20, 1 mM DTT) to remove unbound ligand and to reduce non-specific phage binding. […] All reactions were performed in polypropylene 384-well plates in a final volume of 20 μL. […] The kinase concentration in the eluates was measured by qPCR.
An 11-point 3-fold serial dilution of each test compound was prepared in 100% DMSO at 100× final test concentration and subsequently diluted to 1× in the assay (final DMSO concentration=1%). Most Kos were determined using a compound top concentration=30,000 nM.
KD for each test compound was calculated with a standard dose-response curve using the Hill equation (equation (1)): […]
The Hill Slope was set to −1.
Curves were fitted using a non-linear least square fit with the Levenberg-Marquardt algorithm.

human MLKL (full length) = human MLKL (full length) (Homo sapiens (Human), UniProt Q8NB16); experiment: KINOMEscan binding assay, human MLKL (full length); conditions: equilibrium dissociation constant
Summary of the method: as §1

U937 cells = experiment: Counter screen: U937 cell viability without TSQ cocktail (off-target effect); set-up: species or system human; conditions: Homo sapiens, U-937, compound without TSQ cocktail, read-out: Off-target effect (IC50 cell-based assay)
Summary of the method: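 Off-target viability counter screen: compounds titrated 36 μM down 1:3 over 10 points (0.3% DMSO) on 20,000 U937 cells/well, no TNF/Smac mimetic/Q-VD-OPh added, 48 h incubation. ATP-based CellTiter-Glo luminescence, four-parameter logistic IC50.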

[1] = tested on: U937 human histiocytic leukemia cell line; experiment: Inhibition of TSQ induced necroptosis in U937 cells (CellTitre-Glo); conditions: Homo sapiens, U-937, TSQ cocktail (TNF, Smac mimetic, Q-VD-OPh), 48 hours, read-out: Inhibition of TSQ-induced necroptosis (IC50 cell-based assay)
Summary of the method: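 Necroptosis was induced with TNF-Fc (100 ng/ml), Smac mimetic (500 nM) and Q-VD-OPh (10 μM) in 20000 U937 cells/well exposed to a 10-point, 3-fold compound series (top 36 μM, 0.3% DMSO). ATP luminescence read after 48 h; 4-parameter fit gave IC50. Parallel TSQ-free wells assessed compound toxicity.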

human MLKL (full length), sequence (Q8NB16 whole entry): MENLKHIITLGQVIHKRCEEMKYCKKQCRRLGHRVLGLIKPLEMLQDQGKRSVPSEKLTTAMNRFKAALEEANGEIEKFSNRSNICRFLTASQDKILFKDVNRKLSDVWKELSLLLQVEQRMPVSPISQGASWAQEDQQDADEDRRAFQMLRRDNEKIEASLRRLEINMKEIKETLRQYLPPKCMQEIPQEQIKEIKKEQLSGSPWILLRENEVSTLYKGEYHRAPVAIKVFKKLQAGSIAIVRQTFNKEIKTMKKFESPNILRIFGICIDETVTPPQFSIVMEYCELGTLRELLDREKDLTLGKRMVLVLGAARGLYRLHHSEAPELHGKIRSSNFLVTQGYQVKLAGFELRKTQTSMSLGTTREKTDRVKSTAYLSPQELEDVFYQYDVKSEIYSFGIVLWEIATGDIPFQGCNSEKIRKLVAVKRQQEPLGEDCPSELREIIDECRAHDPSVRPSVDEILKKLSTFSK
mouse MLKL (full length), sequence (Q9D2Y4 whole entry): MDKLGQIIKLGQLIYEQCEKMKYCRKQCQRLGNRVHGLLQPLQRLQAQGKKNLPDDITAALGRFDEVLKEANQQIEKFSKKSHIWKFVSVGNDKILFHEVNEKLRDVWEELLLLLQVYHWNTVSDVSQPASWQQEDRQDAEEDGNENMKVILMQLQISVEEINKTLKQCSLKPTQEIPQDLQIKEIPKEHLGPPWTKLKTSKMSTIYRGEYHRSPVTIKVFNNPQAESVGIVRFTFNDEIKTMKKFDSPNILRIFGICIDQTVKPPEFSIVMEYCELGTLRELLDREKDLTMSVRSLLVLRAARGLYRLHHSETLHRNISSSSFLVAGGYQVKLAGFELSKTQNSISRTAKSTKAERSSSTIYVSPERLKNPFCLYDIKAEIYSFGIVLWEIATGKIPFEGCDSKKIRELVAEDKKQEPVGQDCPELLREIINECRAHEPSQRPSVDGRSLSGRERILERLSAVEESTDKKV
human RIPK1, sequence (Q13546 whole entry): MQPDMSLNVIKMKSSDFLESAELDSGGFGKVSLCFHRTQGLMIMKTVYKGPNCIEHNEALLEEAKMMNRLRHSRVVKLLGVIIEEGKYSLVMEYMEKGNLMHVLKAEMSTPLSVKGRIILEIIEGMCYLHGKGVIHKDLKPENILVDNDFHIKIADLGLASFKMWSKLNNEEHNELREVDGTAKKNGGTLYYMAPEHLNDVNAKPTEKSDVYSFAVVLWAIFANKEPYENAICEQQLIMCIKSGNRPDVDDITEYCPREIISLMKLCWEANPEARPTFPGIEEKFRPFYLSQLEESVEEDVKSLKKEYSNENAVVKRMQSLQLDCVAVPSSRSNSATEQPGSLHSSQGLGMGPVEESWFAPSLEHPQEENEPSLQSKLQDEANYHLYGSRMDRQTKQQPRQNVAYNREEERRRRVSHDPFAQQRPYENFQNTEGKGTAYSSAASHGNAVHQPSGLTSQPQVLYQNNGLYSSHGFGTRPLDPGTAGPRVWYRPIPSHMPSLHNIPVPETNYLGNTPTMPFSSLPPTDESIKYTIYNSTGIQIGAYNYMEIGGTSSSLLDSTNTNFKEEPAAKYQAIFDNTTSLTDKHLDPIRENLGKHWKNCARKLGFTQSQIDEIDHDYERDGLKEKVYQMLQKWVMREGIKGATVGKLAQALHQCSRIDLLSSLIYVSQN
human RIPK3, sequence (Q9Y572 whole entry): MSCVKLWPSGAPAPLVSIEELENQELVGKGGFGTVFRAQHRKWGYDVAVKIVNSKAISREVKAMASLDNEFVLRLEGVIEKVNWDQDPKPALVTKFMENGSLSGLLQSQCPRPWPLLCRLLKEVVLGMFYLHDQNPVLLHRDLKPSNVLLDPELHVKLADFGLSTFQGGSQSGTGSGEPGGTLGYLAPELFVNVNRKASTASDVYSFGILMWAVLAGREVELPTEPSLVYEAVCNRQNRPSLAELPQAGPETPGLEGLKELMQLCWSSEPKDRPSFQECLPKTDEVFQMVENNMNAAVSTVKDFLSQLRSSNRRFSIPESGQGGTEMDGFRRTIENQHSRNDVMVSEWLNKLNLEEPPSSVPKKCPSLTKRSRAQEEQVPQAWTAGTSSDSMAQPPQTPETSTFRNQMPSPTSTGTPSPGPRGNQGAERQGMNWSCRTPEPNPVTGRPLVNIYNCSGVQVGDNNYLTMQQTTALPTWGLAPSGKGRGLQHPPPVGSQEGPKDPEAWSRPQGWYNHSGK

Kd (human RIPK1)	Kd (human RIPK3)	Kd (mouse MLKL (full length))	Kd (human MLKL (full length))	Structure (SMILES)	IC50 (U937 cells)	IC50 [1]
> 10000 nM	> 10000 nM	< 1 nM	< 1 nM	Nc1ncc(-c2cnn(C3CCOCC3)c2)c2occ(-c3ccc(NS(=O)(=O)C(F)F)c(OCc4ccc(F)cc4)c3)c12 [Compound 5, N-(4-(4-amino-7-(1-(tetrahydro-2H-pyran-4-yl)-1H-pyrazol-4-yl)furo[3,2-c]pyridin-3-yl)-2-((4-fluorobenzyl)oxy)phenyl)-1,1-difluoromethanesulfonamide]		
> 10000 nM	> 10000 nM	< 1 nM	1 to 100 nM	C[C@H](Oc1cc(-c2coc3c(-c4cnn(C5CCOCC5)c4)cnc(N)c23)ccc1NS(=O)(=O)C(F)F)c1ccc(F)cc1 [Compound 7, (S)-N-(4-(4-amino-7-(1-(tetrahydro-2H-pyran-4-yl)-1H-pyrazol-4-yl)furo[3,2-c]pyridin-3-yl)-2-(1-(4-fluorophenyl)ethoxy)phenyl)-1,1-difluoromethanesulfonamide]	1000 to 10000 nM	10 to 1000 nM
> 10000 nM	> 10000 nM	< 1 nM	< 1 nM	C[C@H](Oc1cc(-c2coc3c(-c4cnn(C)c4)cnc(N)c23)ccc1NS(=O)(=O)C(F)F)c1ccc(F)cc1 [Compound 8, (S)-N-(4-(4-amino-7-(1-methyl-1H-pyrazol-4-yl)furo[3,2-c]pyridin-3-yl)-2-(1-(4-fluorophenyl)ethoxy)phenyl)-1,1-difluoromethanesulfonamide]		
> 10000 nM	> 10000 nM	1 to 100 nM	< 1 nM	C[C@H](Oc1cc(-c2coc3c(-c4cnn(CCO)c4)cnc(N)c23)ccc1NS(=O)(=O)C(F)F)c1ccc(F)cc1 [Compound 9, (S)-N-(4-(4-amino-7-(1-(2-hydroxyethyl)-1H-pyrazol-4-yl)furo[3,2-c]pyridin-3-yl)-2-(1-(4-fluorophenyl)ethoxy)phenyl)-1,1-difluoromethanesulfonamide]	1000 to 10000 nM	10 to 1000 nM
> 10000 nM	> 10000 nM	< 1 nM	< 1 nM	C[C@H](Oc1cc(-c2nn(C)c3c(-c4cnn(CCO)c4)cnc(N)c23)ccc1NS(=O)(=O)C(F)F)c1ccc(F)cc1 [Compound 15, (S)-N-(4-(4-amino-7-(1-(2-hydroxyethyl)-1H-pyrazol-4-yl)-1-methyl-1H-pyrazolo[4,3-c]pyridin-3-yl)-2-(1-(4-fluorophenyl)ethoxy)phenyl)-1,1-difluoromethanesulfonamide]	> 10000 nM	10 to 1000 nM
> 10000 nM	> 10000 nM	1 to 100 nM	< 1 nM	C[C@H](Oc1cc(-c2nn(C)c3c(-c4ccncc4)cnc(N)c23)ccc1NS(=O)(=O)C(F)F)c1ccc(F)cc1 [Compound 18, (S)-N-(4-(4-amino-1-methyl-7-(pyridin-4-yl)-1H-pyrazolo[4,3-c]pyridin-3-yl)-2-(1-(4-fluorophenyl)ethoxy)phenyl)-1,1-difluoromethanesulfonamide]	> 10000 nM	10 to 1000 nM
> 10000 nM	> 10000 nM	< 1 nM	< 1 nM	C[C@H](Oc1cc(-c2nn(C)c3c(-c4cnn(C)c4)cnc(N)c23)ccc1NS(=O)(=O)C(F)F)c1ccc(F)cc1 [Compound 20, (S)-N-(4-(4-amino-1-methyl-7-(1-methyl-1H-pyrazol-4-yl)-1H-pyrazolo[4,3-c]pyridin-3-yl)-2-(1-(4-fluorophenyl)ethoxy)phenyl)-1,1-difluoromethanesulfonamide]	> 10000 nM	10 to 1000 nM
> 10000 nM	> 10000 nM	< 1 nM	1 to 100 nM	C[C@H](Oc1cc(-c2nn(C)c3c(-c4cnn(CCN5CCN(C)CC5)c4)cnc(N)c23)ccc1NS(=O)(=O)C(F)F)c1ccc(F)cc1 [Compound 60, (S)-N-(4-(4-amino-1-methyl-7-(1-(2-(4-methylpiperazin-1-yl)ethyl)-1H-pyrazol-4-yl)-1H-pyrazolo[4,3-c]pyridin-3-yl)-2-(1-(4-fluorophenyl)ethoxy)phenyl)-1,1-difluoromethanesulfonamide]	> 10000 nM	10 to 1000 nM
> 10000 nM	> 10000 nM	1 to 100 nM	1 to 100 nM	C[C@H](Oc1cc(-c2nn(C)c3c(-c4cnn(C5CCN(CC(F)(F)F)CC5)c4)cnc(N)c23)ccc1NS(=O)(=O)C(F)F)c1ccc(F)cc1 [Compound 61, (S)-N-(4-(4-amino-1-methyl-7-(1-(1-(2,2,2-trifluoroethyl)piperidin-4-yl)-1H-pyrazol-4-yl)-1H-pyrazolo[4,3-c]pyridin-3-yl)-2-(1-(4-fluorophenyl)ethoxy)phenyl)-1,1-difluoromethanesulfonamide]	> 10000 nM	10 to 1000 nM
> 10000 nM	> 10000 nM	1 to 100 nM	< 1 nM	Nc1n[nH]c2nccc(-c3ccc(NS(=O)(=O)C(F)F)c(OCc4ccc(F)cc4)c3)c12 [Compound 66, N-(4-(3-Amino-1H-pyrazolo[3,4-b]pyridin-4-yl)-2-((4-fluorophenyl)methoxy)phenyl)-1,1-difluoromethanesulfonamide]		
> 10000 nM	> 10000 nM	1 to 100 nM	< 1 nM	Nc1n[nH]c2ncnc(-c3ccc(NS(=O)(=O)C(F)F)c(OCc4ccc(F)cc4)c3)c12 [Compound 69, N-(4-(3-Amino-1H-pyrazolo[3,4-d]pyrimidin-4-yl)-2-((4-fluorophenyl)methoxy)phenyl)-1,1-difluoromethanesulfonamide]		
> 10000 nM	> 10000 nM	1 to 100 nM	< 1 nM	Cc1cc(-c2ccc(NS(=O)(=O)C(F)F)c(OCc3ccc(F)cc3)c2)c2c(N)n[nH]c2n1 [Compound 70, N-(4-(3-Amino-6-methyl-1H-pyrazolo[3,4-b]pyridin-4-yl)-2-((4-fluorophenyl)methoxy)phenyl)-1,1-difluoromethanesulfonamide]		
> 10000 nM	> 10000 nM	1 to 100 nM	< 1 nM	C[C@H](Oc1cc(-c2ccnc3[nH]nc(N)c23)ccc1NS(=O)(=O)C(F)F)c1ccc(F)cc1 [Compound 72, N-(4-(3-Amino-1H-pyrazolo[3,4-b]pyridin-4-yl)-2-((1S)-1-(4-fluorophenyl)ethoxy)phenyl)-1,1-difluoromethanesulfonamide]	> 10000 nM	10 to 1000 nM
